Reference: patent publication US20240018119A1, “CARBOXAMIDE DERIVATIVE AND PHARMACEUTICAL COMPOSITION COMPRISING SAME AS ACTIVE INGREDIENT FOR PREVENTING OR TREATING MENTAL ILLNESS” (DAEGU-GYEONGBUK MEDICAL INNOVATION FOUNDATION, priority 2020, published 2024)

Tests used:
Type in all cases: cell-based
serotonin transporter = target: T1, serotonin transporter (Homo sapiens, UniProt P31645); assay: Serotonin reuptake inhibition in transporter-transfected HEK-293 cells ([3H]-5-HT); details: for Triple reuptake inhibition (Ratio %) SERT: compound 1 μM, [3H]-5-HT, relative to control without compound (100%), lower = more inhibition; for IC50: concentration at which Ratio % is 50%, 6 concentrations 1 nM to 1 μM, read-out: Triple reuptake inhibition (IC50, μM) SERT
T1 construct: expressed in transfected cells; host or cells: HEK-293
Procedure: (§1) To evaluate the reuptake inhibitory effect on dopamine, the dopamine transporter cDNA was transfected using the HEK-293 cell line, and then sub-seeded in a 24 well plate the next day. After removing the medium, each compound of the Examples or Comparative Examples diluted to 1 μM in uptake buffer was added to a concentration of 200 μl/well and cultured at 37° C. for 15 minutes. 100 μl of uptake buffer containing 20-30 nM [3H]-DA was added and cultured at 37° C. for 5 minutes. The reaction solution was quickly removed and washed three times with 1 ml ice-cold uptake buffer. After dissolving the resultant in 1% SDS (0.5 ml), the degree of binding of radioisotope-labeled dopamine to the transporter was measured.
(§2) For norepinephrine (NE) and serotonin (5-HT), the degree of binding of radioisotope-labeled norepinephrine or serotonin to the transporter was measured in the same manner as above, except that cells transfected with NE or 5-HT transporter cDNA were used and [3H]-NE or [3H]-5-HT was used as a substrate.
(§3) In addition, when evaluating the reuptake inhibitory effect on dopamine, norepinephrine, and serotonin, the same method was performed without treating each compound of the Examples or Comparative Examples as a control, the degree of binding of radioisotope-labeled dopamine, norepinephrine, and serotonin to the transporter was measured, and by using this as a standard (100%), the triple reuptake inhibitory effect was evaluated as a relative ratio (Ratio %). That is, in the control group, the binding of dopamine, norepinephrine, and serotonin to transporters is not inhibited, but when each compound of the Examples is treated and thus the binding is inhibited, the Patio % value decreases.
In addition, in the case of the compound of Comparative Example 1, IC50 was obtained by the same method as the Example Compounds.

[1] = target: T2, norepinephrine transporter (Homo sapiens, UniProt P23975); assay: Norepinephrine reuptake inhibition in transporter-transfected HEK-293 cells ([3H]-NE); details: for Triple reuptake inhibition (Ratio %) NET: compound 1 μM, [3H]-NE, relative to control without compound (100%), lower = more inhibition; for IC50: concentration at which Ratio % is 50%, 6 concentrations 1 nM to 1 μM, read-out: Triple reuptake inhibition (IC50, μM) NET
T2 construct: expressed in transfected cells; host or cells: HEK-293
Procedure: as §1, §2, §3
(§4) Meanwhile, the Patio % values were compared, and in the case of the compounds of Examples 6, 9, 10, 19, 20, 22, 24, 28, 30, 31, 32, 33, 35, 41, 42, 48, 49, 51, 55, 56, 59, 61, 63, 64, 65, 66, 74 and 76 with excellent reuptake inhibitory effects on dopamine, norepinephrine and serotonin, the concentration at which the Ratio % is 50% was calculated using a total of 6 concentrations (1 nM, 5 nM, 10 nM, 50 nM, 100 nM, and 1 μM) and expressed as IC50. In addition, in the case of the compound of Comparative Example 1, IC50 was obtained by the same method as the Example Compounds.

dopamine transporter = target: T3, dopamine transporter (Homo sapiens, UniProt Q01959); assay: Dopamine reuptake inhibition in transporter-transfected HEK-293 cells ([3H]-DA); details: for Triple reuptake inhibition (Ratio %) DAT: compound 1 μM, 20-30 nM [3H]-DA, relative to control without compound (100%), lower = more inhibition; for IC50: concentration at which Ratio % is 50%, 6 concentrations 1 nM to 1 μM, read-out: Triple reuptake inhibition (IC50, μM) DAT
T3 construct: expressed in transfected cells; host or cells: HEK-293
Procedure: as §1, §3, §4

T1 sequence (P31645 whole entry): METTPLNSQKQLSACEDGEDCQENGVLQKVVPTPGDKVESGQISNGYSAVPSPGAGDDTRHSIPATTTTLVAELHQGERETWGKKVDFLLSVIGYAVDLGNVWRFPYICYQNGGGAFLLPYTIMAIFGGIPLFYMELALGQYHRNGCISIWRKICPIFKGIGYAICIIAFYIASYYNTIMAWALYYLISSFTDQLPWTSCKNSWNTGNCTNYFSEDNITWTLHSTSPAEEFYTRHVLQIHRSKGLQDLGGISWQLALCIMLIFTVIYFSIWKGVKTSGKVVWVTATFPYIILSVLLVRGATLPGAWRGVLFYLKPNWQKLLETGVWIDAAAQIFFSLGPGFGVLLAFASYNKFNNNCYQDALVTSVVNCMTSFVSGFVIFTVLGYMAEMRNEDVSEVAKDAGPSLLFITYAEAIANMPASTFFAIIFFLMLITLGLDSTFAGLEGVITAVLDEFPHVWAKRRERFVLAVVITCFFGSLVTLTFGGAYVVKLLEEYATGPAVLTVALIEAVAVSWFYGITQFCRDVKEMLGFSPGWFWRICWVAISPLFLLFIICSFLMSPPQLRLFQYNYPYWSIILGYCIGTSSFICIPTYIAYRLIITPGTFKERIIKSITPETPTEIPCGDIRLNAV
T3 sequence (Q01959 whole entry): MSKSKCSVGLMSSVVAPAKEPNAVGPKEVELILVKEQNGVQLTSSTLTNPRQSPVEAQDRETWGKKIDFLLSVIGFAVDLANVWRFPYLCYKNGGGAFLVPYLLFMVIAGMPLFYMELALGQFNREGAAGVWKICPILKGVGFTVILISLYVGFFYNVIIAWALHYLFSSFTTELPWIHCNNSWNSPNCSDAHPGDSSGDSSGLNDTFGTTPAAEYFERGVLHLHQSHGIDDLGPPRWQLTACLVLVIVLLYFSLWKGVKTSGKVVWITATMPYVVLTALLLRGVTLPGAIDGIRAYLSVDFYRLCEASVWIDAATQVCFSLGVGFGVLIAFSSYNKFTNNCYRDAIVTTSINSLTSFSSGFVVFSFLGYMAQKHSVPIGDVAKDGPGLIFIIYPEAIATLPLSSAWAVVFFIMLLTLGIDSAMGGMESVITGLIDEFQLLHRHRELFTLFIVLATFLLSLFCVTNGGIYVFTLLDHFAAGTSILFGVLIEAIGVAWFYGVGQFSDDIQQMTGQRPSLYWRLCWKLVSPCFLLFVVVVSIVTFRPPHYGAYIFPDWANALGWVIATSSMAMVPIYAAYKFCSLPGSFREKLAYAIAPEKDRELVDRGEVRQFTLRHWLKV
T2 sequence (P23975 whole entry, species assumed): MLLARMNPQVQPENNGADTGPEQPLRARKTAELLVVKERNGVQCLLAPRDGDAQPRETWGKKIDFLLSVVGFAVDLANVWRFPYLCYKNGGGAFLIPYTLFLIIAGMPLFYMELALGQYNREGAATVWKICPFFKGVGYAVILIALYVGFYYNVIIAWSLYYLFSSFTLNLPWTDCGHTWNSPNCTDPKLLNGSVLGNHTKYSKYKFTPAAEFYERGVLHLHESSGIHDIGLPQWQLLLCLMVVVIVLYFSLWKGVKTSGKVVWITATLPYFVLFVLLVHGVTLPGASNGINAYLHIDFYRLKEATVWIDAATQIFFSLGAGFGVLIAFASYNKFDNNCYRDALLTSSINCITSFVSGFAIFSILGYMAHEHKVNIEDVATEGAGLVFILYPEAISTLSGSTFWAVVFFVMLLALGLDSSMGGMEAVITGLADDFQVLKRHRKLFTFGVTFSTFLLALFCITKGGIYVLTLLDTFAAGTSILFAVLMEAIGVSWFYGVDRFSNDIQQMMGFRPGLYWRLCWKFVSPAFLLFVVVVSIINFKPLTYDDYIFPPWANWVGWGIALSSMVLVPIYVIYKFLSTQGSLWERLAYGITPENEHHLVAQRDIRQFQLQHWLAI

SMILES | Triple reuptake inhibition (Ratio %) SERT (serotonin transporter) | Triple reuptake inhibition (Ratio %) NET [1] | Triple reuptake inhibition (Ratio %) DAT (dopamine transporter) | IC50 (serotonin transporter) | IC50 (dopamine transporter) | IC50 [1]
O=C(NCCN1CCN(c2cccc(C(F)(F)F)c2)CC1)c1ccc2cc(Br)ccc2c1 [Example 2] | 78.42% | 120.40% | 107.77% |  |  | 
O=C(NCCN1CCN(c2ccc(Cl)c(Cl)c2)CC1)c1ccc2cc(Br)ccc2c1 [Example 3, 6-bromo-N-(2-(4-(3,4-dichlorophenyl)piperazin-1-yl)ethyl)-2-naphthamide] | 77.91% | 110.56% | 104.38% |  |  | 
O=C(NCCN1CCN(c2cccc(Cl)c2Cl)CC1)c1ccc2cc(Br)ccc2c1 [Example 4, 6-bromo-N-(2-(4-(2,3-dichlorophenyl)piperazin-1-yl)ethyl)-2-naphthamide] | 73.53% | 121.24% | 108.51% |  |  | 
O=C(NCCN1CCN(Cc2ccccc2)CC1)c1ccc2cc(Br)ccc2c1 [Example 5, N-(2-(4-benzylpiperazin-1-yl)ethyl)-6-bromo-2-naphthamide] | 76.90% | 94.24% | 96.26% |  |  | 
O=C(NCCN1CCC(Cc2ccc(F)c(F)c2)CC1)c1ccc2cc(Br)ccc2c1 [Example 6, 6-bromo-N-(2-(4-(3,4-difluorobenzyl)piperidin-1-yl)ethyl)-2-naphthamide] | 73.84% | 34.16% | 57.66% | 14 µM | 3.93 µM | 
O=C(NCCN1CCN(Cc2ccc(F)c(F)c2)CC1)c1ccc2cc(Br)ccc2c1 [Example 7, 6-bromo-N-(2-(4-(3,4-difluorobenzyl)piperazin-1-yl)ethyl)-2-naphthamide] | 103.19% | 60.83% | 82.42% |  |  | 
O=C(NCCn1ccc(-c2ccc(F)cn2)n1)c1ccc2cc(Br)ccc2c1 [Example 8, 6-bromo-N-(2-(3-(5-fluoropyridin-2-yl)-1H-pyrazol-1-yl)ethyl)-2-naphthamide] | 86.83% | 95.78% | 97.06% |  |  | 
O=C(NCCN1CCC(Cc2ccc(Cl)c(Cl)c2)CC1)c1ccc2cc(Br)ccc2c1 [Example 9, 6-bromo-N-(2-(4-(3,4-dichlorobenzyl)piperidin-1-yl)ethyl)-2-naphthamide] | 9.92% | 98.42% | 78.56% | 3.07 µM | 2.91 µM | 
O=C(NCCN1CCC(Cc2ccc(Cl)c(Cl)c2)CC1)c1cc(Cl)cc(Cl)c1 [Example 10, 3,5-dichloro-N-(2-(4-(3,4-dichlorobenzyl)piperidin-1-yl)ethyl)benzamide] | 37.57% | 76.85% | 44.72% |  | 4.29 µM | 14.3 µM
O=C(NCCN1CCN(Cc2ccc(Cl)c(Cl)c2)CC1)c1ccc(Cl)c(Cl)c1 [Example 11, 3,4-dichloro-N-(2-(4-(3,4-dichlorobenzyl)piperazin-1-yl)ethyl)benzamide] | 63.40% | 82.25% | 75.29% |  |  | 
O=C(NCCN1CCN(c2cccc(C(F)(F)F)c2)CC1)c1ccc(Cl)c(Cl)c1 [Example 12, 3,4-dichloro-N-(2-(4-(3-(trifluoromethyl)phenyl)piperazin-1-yl)ethyl)benzamide] | 93.46% | 94.42% | 103.97% |  |  | 
O=C(NCCN1CCN(c2cccc(Cl)c2Cl)CC1)c1ccc(Cl)c(Cl)c1 [Example 13, 3,4-dichloro-N-(2-(4-(2,3-dichlorophenyl)piperazin-1-yl)ethyl)benzamide] | 89.10% | 94.42% | 106.09% |  |  | 
O=C(NCCN1CCN(c2ccc(Cl)c(Cl)c2)CC1)c1ccc(Cl)c(Cl)c1 [Example 14, 3,4-dichloro-N-(2-(4-(3,4-dichlorphenyl)piperazin-1-yl)ethyl)benzamide] | 88.61% | 105.49% | 94.20% |  |  | 
O=C(NCCN1CCN(Cc2ccccc2)CC1)c1ccc(Cl)c(Cl)c1 [Example 15, N-(2-(4-benzylpiperazin-1-yl)ethyl)-3,4-dichlorobenzamide] | 114.75% | 72.94% | 85.21% |  |  | 
O=C(NCCN1CCN(Cc2ccc(F)c(F)c2)CC1)c1ccc(Cl)c(Cl)c1 [Example 16, 3,4-dichloro-N-(2-(4-(3,4-difluorobenzyl)piperazin-1-yl)ethyl)benzamide] | 113.34% | 82.44% | 85.54% |  |  | 
O=C(NCCN1CCC(Cc2ccc(Cl)c(Cl)c2)CC1)c1ccc(Cl)c(Cl)c1 [Example 17, 3,4-dichloro-N-(2-(4-(3,4-dichlorobenzyl)piperidin-1-yl)ethyl)benzamide] | 4.81% | 88.67% | 66.05% |  |  | 
O=C(NCCN1CCC(Cc2ccccc2)CC1)c1ccc(Cl)c(Cl)c1 [Example 18, N-(2-(4-benzylpiperidin-1-yl)ethyl)-3,4-dichlorobenzamide] | 47.45% | 67.88% | 68.93% |  |  | 
O=C(NCCN1CCC(Cc2ccc(Cl)c(Cl)c2)CC1)c1cc2ccccc2[nH]1 [Example 19, N-(2-(4-(3,4-dichlorobenzyl)piperidin-1-yl)ethyl)-1H-indol-2-carboxamide] | 40.39% | 94.93% | 36.79% | 0.51 µM | 0.59 µM | > 10 µM
Cc1c(C(=O)NCCN2CCC(Cc3ccccc3)CC2)[nH]c2ccccc12 [Example 20, N-(2-(4-benzylpiperidin-1-yl)ethyl)-3-methyl-1H-indol-2-carboxamide] | 83.11% | 85.70% | 43.53% |  | 1.37 µM | 
O=C(NCCN1CCN(c2cccc(C(F)(F)F)c2)CC1)c1cc2ccccc2[nH]1 [Example 21, N-(2-(4-(3-(trifluoromethyl)phenyl)piperazin-1-yl)ethyl)-1H-indol-2-carboxamide] | 86.98% | 97.95% | 94.30% |  |  | 
O=C(NCCN1CCN(Cc2ccc(Cl)c(Cl)c2)CC1)c1cc2ccccc2[nH]1 [Example 22, N-(2-(4-(3,4-dichlorobenzyl)piperazin-1-yl)ethyl)-1H-indol-2-carboxamide] | 52.47% | 91.21% | 63.72% | > 10 µM |  | 
O=C(NCCN1CCN(c2cccc(Cl)c2Cl)CC1)c1cc2ccccc2[nH]1 [Example 23, N-(2-(4-(2,3-dichlorophenyl)piperazin-1-yl)ethyl)-1H-indol-2-carboxamide] | 85.13% | 99.59% | 70.42% |  |  | 
O=C(NCCN1CCN(c2ccc(Cl)c(Cl)c2)CC1)c1cc2ccccc2[nH]1 [Example 24, N-(2-(4-(3,4-dichlorophenyl)piperazin-1-yl)ethyl)-1H-indol-2-carboxamide] | 59.92% | 107.75% | 43.28% | > 10 µM | 8.03 µM | 
